We go through 19 compounds from US9546173B2 (Novartis AG, priority 2012, dated 2017).

Read-outs that look alike come from different tables or passages of the source. Bounds are passed on as bounds.

Common to all, as to assay type: biochemical
One assay deals with activated ERK2 (Homo sapiens (Human), UniProt P28482). The assay is described as follows: Activated ERK2 kinase assay (AlphaScreen, ERKtide peptide phosphorylation). To be noted: 35 μM ATP, 30 min preincubation, read-out: ERK2 IC50. (Alpha assays give light when donor and acceptor beads are brought close together.)
Sequence of activated ERK2 (P28482 whole entry): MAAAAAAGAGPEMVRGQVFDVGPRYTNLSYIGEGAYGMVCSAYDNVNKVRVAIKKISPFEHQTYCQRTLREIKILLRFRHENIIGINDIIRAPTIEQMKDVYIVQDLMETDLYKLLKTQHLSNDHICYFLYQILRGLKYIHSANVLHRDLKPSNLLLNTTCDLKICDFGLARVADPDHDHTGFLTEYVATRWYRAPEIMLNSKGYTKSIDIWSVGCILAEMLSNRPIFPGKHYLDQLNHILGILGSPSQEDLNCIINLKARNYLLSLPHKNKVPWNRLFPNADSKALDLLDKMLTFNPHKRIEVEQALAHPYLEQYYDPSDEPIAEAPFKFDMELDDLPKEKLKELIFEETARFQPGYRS
For the next assay, the target named is RSK2 (Homo sapiens (Human), UniProt P51812). As to the kind of experiment: In vitro inhibition of RSK2. To be noted: in vitro activity on RSK2; where multiple measurements were made, each value is reported. The method, then:
(§1) The following Table 3 lists compounds that were tested for inhibition of RSK; the IC50 values are in micromolar units, and refer to inhibition of RSK1 and RSK2, respectively. Where multiple measurements were made, each value is reported.

Another assay concerns the target RSK1 (Homo sapiens (Human), UniProt Q15418). As to the kind of experiment: In vitro inhibition of RSK1. To be noted: in vitro activity on RSK1. How it is done: as §1
The mark [1] stands for this setting: […] ERK2, 200 nM ERKtide peptide.

Sequence of RSK2 (P51812 whole entry, species assumed): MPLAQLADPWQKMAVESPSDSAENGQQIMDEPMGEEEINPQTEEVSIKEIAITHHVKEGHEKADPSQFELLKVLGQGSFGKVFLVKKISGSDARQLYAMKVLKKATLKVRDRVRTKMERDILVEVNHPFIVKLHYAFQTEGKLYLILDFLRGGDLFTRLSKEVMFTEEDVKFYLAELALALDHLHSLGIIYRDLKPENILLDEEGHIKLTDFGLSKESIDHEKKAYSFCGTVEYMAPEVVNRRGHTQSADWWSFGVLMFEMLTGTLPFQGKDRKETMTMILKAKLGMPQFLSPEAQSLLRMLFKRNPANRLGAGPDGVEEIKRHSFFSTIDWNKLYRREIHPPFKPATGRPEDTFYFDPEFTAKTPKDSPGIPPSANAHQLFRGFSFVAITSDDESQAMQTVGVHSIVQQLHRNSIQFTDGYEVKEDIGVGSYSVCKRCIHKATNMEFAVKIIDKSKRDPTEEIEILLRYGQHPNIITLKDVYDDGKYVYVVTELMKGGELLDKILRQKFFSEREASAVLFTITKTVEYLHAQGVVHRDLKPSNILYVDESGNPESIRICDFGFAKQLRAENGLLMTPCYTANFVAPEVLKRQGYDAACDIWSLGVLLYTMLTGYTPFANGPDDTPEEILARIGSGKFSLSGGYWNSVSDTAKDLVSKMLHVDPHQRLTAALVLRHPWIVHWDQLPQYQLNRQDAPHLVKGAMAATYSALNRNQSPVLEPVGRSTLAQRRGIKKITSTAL
Sequence of RSK1 (Q15418 whole entry, species assumed): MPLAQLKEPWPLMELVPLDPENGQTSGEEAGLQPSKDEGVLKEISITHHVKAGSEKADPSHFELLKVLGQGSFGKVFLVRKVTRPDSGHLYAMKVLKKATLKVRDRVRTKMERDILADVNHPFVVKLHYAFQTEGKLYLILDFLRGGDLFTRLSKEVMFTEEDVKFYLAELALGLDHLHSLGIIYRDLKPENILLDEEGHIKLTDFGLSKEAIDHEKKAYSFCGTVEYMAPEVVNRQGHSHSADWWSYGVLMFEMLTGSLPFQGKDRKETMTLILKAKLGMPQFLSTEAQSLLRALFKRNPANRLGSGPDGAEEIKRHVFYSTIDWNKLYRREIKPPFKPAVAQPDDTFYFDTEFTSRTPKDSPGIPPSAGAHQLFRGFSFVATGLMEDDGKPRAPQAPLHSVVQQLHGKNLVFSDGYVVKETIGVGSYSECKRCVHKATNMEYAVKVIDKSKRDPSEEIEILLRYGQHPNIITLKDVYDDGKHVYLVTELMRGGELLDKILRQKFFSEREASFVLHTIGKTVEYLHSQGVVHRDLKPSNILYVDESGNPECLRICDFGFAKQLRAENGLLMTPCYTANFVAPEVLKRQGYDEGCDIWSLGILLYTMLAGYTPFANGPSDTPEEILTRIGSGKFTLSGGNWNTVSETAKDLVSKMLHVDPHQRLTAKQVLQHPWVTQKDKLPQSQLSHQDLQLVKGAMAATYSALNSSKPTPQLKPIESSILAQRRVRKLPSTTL

With `CN1CCN(C(=O)N2Cc3nc(Nc4ccccc4)ncc3C2(C)C)CC1(C)C` [compound 149, (5,5-dimethyl-2-(phenylamino)-5H-pyrrolo[3,4-d]pyrimidin-6(7H)-yl)(3,3,4-trimethylpiperazin-1-yl)methanone], the values for the IC50 on activated ERK2 (setting [1]) and on RSK2 were 37.7 µM and 0.611 µM, respectively.
`CN1CCN(C(=O)N2Cc3nc(Nc4ccccc4)ncc3C2(C)C)CC1` [compound 151, (5,5-dimethyl-2-(phenylamino)-5H-pyrrolo[3,4-d]pyrimidin-6(7H)-yl)(4-methylpiperazin-1-yl)methanone]: the half-maximal inhibitory concentration (IC50) at activated ERK2 (setting [1]) is 5.57 µM; at RSK2, 1.17 µM; against RSK1, 1.61 µM.
As to `CN1CC(NC(=O)N2Cc3nc(Nc4ccccc4)ncc3C2(C)C)C1` [compound 153, 5,5-dimethyl-N-(1-methylazetidin-3-yl)-2-(phenylamino)-5H-pyrrolo[3,4-d]pyrimidine-6(7H)-carboxamide], the concentration for half-maximal inhibition (IC50) on activated ERK2 (setting [1]) is 125 µM; against RSK2, 1.37 µM.
The corresponding values for `CN1CCN(C(=O)N2Cc3nc(Nc4ccccc4)ncc3C2(C)C)C(Cc2ccccc2)C1` (centres unmarked) [compound 154, (2-benzyl-4-methylpiperazin-1-yl)(5,5-dimethyl-2-(phenylamino)-5H-pyrrolo[3,4-d]pyrimidin-6(7H)-yl)methanone] are 3.03 µM and 1.64 µM.
The corresponding values for `CC1(C)c2cnc(Nc3ccccc3)nc2CN1C(=O)NC1CCN(Cc2ccccc2)C1` (centres unmarked) [compound 155, N-(1-benzylpyrrolidin-3-yl)-5,5-dimethyl-2-(phenylamino)-5H-pyrrolo[3,4-d]pyrimidine-6(7H)-carboxamide] are 0.969 µM and 1.91 µM.
Regarding `C[C@@H](NC(=O)N1Cc2nc(Nc3ccccc3)ncc2C1(C)C)c1ccccc1` [compound 156, (R)-5,5-dimethyl-2-(phenylamino)-N-(1-phenylethyl)-5H-pyrrolo[3,4-d]pyrimidine-6(7H)-carboxamide], half-maximal inhibition on RSK2 (IC50) required 2.57 µM.
For `CN(C)CCNC(=O)N1Cc2nc(Nc3ccccc3)ncc2C1(C)C` [compound 157, N-(2-(dimethylamino)ethyl)-5,5-dimethyl-2-(phenylamino)-5H-pyrrolo[3,4-d]pyrimidine-6(7H)-carboxamide], the IC50 came to 25 µM on activated ERK2 (setting [1]) and 3.85 µM against RSK2.
The corresponding values for `CN1CCC(NC(=O)N2Cc3nc(Nc4ccccc4)ncc3C2(C)C)C1` (centres unmarked) [compound 158, 5,5-dimethyl-N-(1-methylpyrrolidin-3-yl)-2-(phenylamino)-5H-pyrrolo[3,4-d]pyrimidine-6(7H)-carboxamide] are 41.1 µM and 3.88 µM.
Take `CC1(C)c2cnc(Nc3ccccc3)nc2CN1C(=O)NCC1CCN(Cc2ccccc2)C1` (centres unmarked) [compound 159, N-((1-benzylpyrrolidin-3-yl)methyl)-5,5-dimethyl-2-(phenylamino)-5H-pyrrolo[3,4-d]pyrimidine-6(7H)-carboxamide]: the concentration for half-maximal inhibition (IC50) at activated ERK2 (setting [1]) was determined as 19.6 µM; against RSK2 it was 5.65 µM.
For `Cn1cncc1CNC(=O)N1Cc2nc(Nc3ccccc3)ncc2C1(C)C` [compound 160, 5,5-dimethyl-N-((1-methyl-1H-imidazol-5-yl)methyl)-2-(phenylamino)-5H-pyrrolo[3,4-d]pyrimidine-6(7H)-carboxamide], in that order: 36.6 µM and 5.65 µM.
In the case of `CN(C)[C@@H]1CCCC[C@H]1NC(=O)N1Cc2nc(Nc3ccccc3)ncc2C1(C)C` [compound 161, N-((1R,2R)-2-(dimethylamino)cyclohexyl)-5,5-dimethyl-2-(phenylamino)-5H-pyrrolo[3,4-d]pyrimidine-6(7H)-carboxamide], the IC50 on activated ERK2 (setting [1]) amounted to 125 µM; against RSK2, 8.2 µM.
The corresponding values for `CC1(C)c2cnc(Nc3ccccc3)nc2CN1C(=O)NCc1cocn1` [compound 162, 5,5-dimethyl-N-(oxazol-4-ylmethyl)-2-(phenylamino)-5H-pyrrolo[3,4-d]pyrimidine-6(7H)-carboxamide] are 16.2 µM and 8.21 µM.
For `CN1CCC(NC(=O)N2Cc3nc(Nc4ccccc4)ncc3C2(C)C)CC1` [compound 163, 5,5-dimethyl-N-(1-methylpiperidin-4-yl)-2-(phenylamino)-5H-pyrrolo[3,4-d]pyrimidine-6(7H)-carboxamide], in that order: 83.5 µM and 14 µM.
For `CC1(C)c2cnc(Nc3ccccc3)nc2CN1C(=O)NCCO` [compound 164, N-(2-hydroxyethyl)-5,5-dimethyl-2-(phenylamino)-5H-pyrrolo[3,4-d]pyrimidine-6(7H)-carboxamide], in that order: 18.4 µM and 14 µM.
Regarding `CC1(C)c2cnc(Nc3ccccc3)nc2CN1C(=O)NC1CCOCC1` [compound 165, 5,5-dimethyl-2-(phenylamino)-N-(tetrahydro-2H-pyran-4-yl)-5H-pyrrolo[3,4-d]pyrimidine-6(7H)-carboxamide], the IC50 on activated ERK2 (0.25 nM ERK2, 200 nM ERKtide peptide) was 18.9 µM; on RSK2, 15.2 µM.
`CN(C)Cc1ccccc1CNC(=O)N1Cc2nc(Nc3ccccc3)ncc2C1(C)C` [compound 166, N-(2-((dimethylamino)methyl)benzyl)-5,5-dimethyl-2-(phenylamino)-5H-pyrrolo[3,4-d]pyrimidine-6(7H)-carboxamide]: the results for the IC50 at activated ERK2 (setting [1]) and against RSK2 were 44.8 µM and 16.3 µM, respectively.
In the case of `C[C@H](NC(=O)N1Cc2nc(Nc3ccccc3)ncc2C1(C)C)c1ccccc1` [compound 169, (S)-5,5-dimethyl-2-(phenylamino)-N-(1-phenylethyl)-5H-pyrrolo[3,4-d]pyrimidine-6(7H)-carboxamide], at RSK2, the IC50 was more than 25 µM.
With `C[C@@H](NC(=O)N1Cc2nc(NC3CCOCC3)ncc2C1C1CC1)c1cccc(Cl)c1` (stereo partly drawn) [compound 171, N-((R)-1-(3-chlorophenyl)ethyl)-5-cyclopropyl-2-((tetrahydro-2H-pyran-4-yl)amino)-5H-pyrrolo[3,4-d]pyrimidine-6(7H)-carboxamide], the half-inhibitory concentration (IC50) on activated ERK2 (setting [1]) turned out to be 0.343 µM.
The same measure, in the same setting: the result for `C[C@@H](NC(=O)N1Cc2nc(NC3CCOCC3)ncc2C1C1CC1)c1cccc(Cl)c1` (stereo partly drawn) [compound 172, N-((R)-1-(3-chlorophenyl)ethyl)-5-cyclopropyl-2-((tetrahydro-2H-pyran-4-yl)amino)-5H-pyrrolo[3,4-d]pyrimidine-6(7H)-carboxamide] reads 0.146 µM.

The IC50 is the midpoint of a concentration-inhibition curve.
